The target in the experiment is Src (Gallus gallus, UniProt P00523, Y527F). Nature of the experiment: In vitro activity assay with Src phospho-isoforms. Format: biochemical. The note with it: npY416-Src vs pY416-Src.

These results are taken from PMC3880807 (ACS chemical biology, 2013).

Each structure is given as a SMILES string.

As to `CNC(=O)c1cc(Oc2ccc(NC(=O)Nc3cc(C(C)(C)C)nn3-c3ccc4ncccc4c3)c(F)c2)ccn1` [compound 1, Rebastinib], the “Fold-difference in Ki, preference for npY416-Src over pY416-Src” value is ~ 11 fold.
